Results published in patent US20250381181A1, “CANCER TREATMENT AGENT INCLUDING MALT1 INHIBITING DRUG AS ACTIVE INGREDIENT” (ONO PHARMACEUTICAL CO., LTD., priority 2022, published 2025).

Legend:
Human MCL cell line = experiment: Combination of Compound A and Btk inhibitor or Bcl-2 inhibitor, cell viability (Cell Counting Kit-8); format: cell-based; settings: combined treatment with Compound A (10, 30 or 100 nmol/L), 6 days
Excerpt: (§1) Treatment concentrations of Compound A were 10, 30 or 100 nmol/L, and treatment concentrations of the Btk inhibitor and the Bcl-2 inhibitor were set between 0.3 to 300 nmol/L or 0.003 to 10 nmol/L, respectively.

[1] = test system: Human CD79 mutation-positive DLBCL cell line; experiment: as above; format: cell-based; settings: combined treatment with Compound A (10, 30 or 100 nmol/L), 6 days
Excerpt: as §1

[2] = test system: Human CD79 mutation-positive diffuse large B-cell lymphoma cell line; experiment: Combination of Compound A and each anticancer agent, cell viability (Cell Counting Kit-8); settings: combined treatment with Compound A (3, 10, 30 or 100 nmol/L); CD79 mutation-positive DLBCL; 6 days
Method: (§6) Human CD79 mutation-positive diffuse large B-cell lymphoma cell lines and human mantle cell lymphoma cell lines were used. The cells were subcultured using RPMI1640 containing 10% non-mobilized fetal bovine serum (hereinafter, the medium) under conditions of 5% CO2 and 37° C.
(§7) The cells suspended in the medium were seeded in 96 well plates at a density of 2500 or 5000 cells/100 μL per well. […] After completion of the culture, the number of surviving cells was measured using Cell Counting Kit-8 (DOJINDO) according to the procedure of the kit.

[3] = test system: Human mantle cell lymphoma cell line; experiment: as above; settings: combined treatment with Compound A (3, 10, 30 or 100 nmol/L), 6 days
Method: as §6, §7

[4] = test system: human CD79 mutation-positive diffuse large B-cell lymphoma cell line; experiment: Antitumor effect in mouse subcutaneous transplantation model; format: in vivo; settings: orally for 21 days; Compound A 10 mg/kg twice a day, Ibrutinib 10 mg/kg once a day; subcutaneous tumor in NOG mice
Method: A human CD79 mutation-positive diffuse large B-cell lymphoma cell line was used. The cells were subcultured using Iscove's modified Dulbecco's medium containing 20% inactivated calf serum and 0.5 mmol/L Monothioglycerol under conditions of 5% CO2 and 37° C.
The cells were suspended in HBSS:Matrigel=1:1 and implanted subcutaneously in the abdomen of 7-week-old female NOG mice at 1×10^6 cells/mouse. The tumor volume was measured using a caliper, and calculated by a calculation formula of tumor volume=(major tumor diameter×minor tumor diameter×minor tumor diameter)/2. At the time when the tumor volume reached about 120 mm^3, grouping was performed into 4 groups of 6 mice per group. Compound A was orally administered at a dose of 10 mg/kg twice a day for 21 days, and Ibrutinib was orally administered at a dose of 10 mg/kg once a day for 21 days. Also, the combined administration group was orally administered with 10 mg/kg of Compound A and 10 mg/kg of ibrutinib. The control group was orally administered with a 0.5% methylcellulose solution. After grouping, tumor volume measurements were performed twice a week. T/C (%) was used as an index of the antitumor effect.
Regarding the amount of tumor volume change during the administration period of each group, the combined antitumor effect of Compound A and Ibrutinib was analyzed by a statistical method of two-way ANOVA of EZR (ver. 1.54) software.

[5] = test system: Human CD79 mutation-positive diffuse large B-cell lymphoma cell line 2; experiment: Combined effect on cell viability, Compound A and Btk inhibitor (CellTiter-Glo, in vitro); format: cell-based; settings: combined treatment with Compound A, 6 days of culture
Method: (§2) Using Ibrutinib as a Btk inhibitor, the combined effect on cell viability with Compound A was evaluated in vitro.
(§3) After 6 days of culture from the addition, the cell viability was evaluated as follows.
(§4) Cell viability was evaluated by each treatment by measuring intracellular adenosine triphosphate (ATP) using CellTiter-Glo. That is, 100 μL of CellTiter-Glo solution per well was added to each well and incubated at room temperature for 15 minutes, and then chemiluminescence was measured. The average value of each combination was calculated from the obtained data, and a concentration reaction curve of the cell viability of each drug alone or in combination was created with the luminescence intensity in cells treated with DMSO alone as 100%.
(§5) The half maximal inhibitory concentration (IC50) for each drug was determined using median effect analysis software CalcuSyn 2.0 (CalcuSyn, Inc).

[6] = test system: Human CD79 mutation-positive diffuse large B-cell lymphoma cell line 1; experiment: as above; format: cell-based; settings: combined treatment with Compound A
Method: as §2, §3, §4, §5

[7] = test system: Human CARD11 mutation-positive DLBCL cell line; experiment: Combination of Compound A and Bcl-2 inhibitor, cell viability (Cell Counting Kit-8); format: cell-based; settings: combined treatment with Compound A (10, 30 or 100 nmol/L), 6 days
Excerpt: as §1

Compound | Combination index (CI) value, median [2] | Combination index (CI) value, median [3] | other results
O=C(c1ccc(Oc2ccccc2)cc1Cl)c1c[nH]c2ncnc(N[C@@H]3CC[C@@H](CO)OC3)c12 [ARQ-531] |  |  | Combination index (CI) value, median (Human MCL cell line): 0.928; Combination index (CI) value, median [1]: 0.701
CC#CC(=O)N1CCC[C@H]1c1nc(-c2ccc(C(=O)Nc3ccccn3)cc2)c2c(N)nccn12 [Acarabrutinib] |  |  | Combination index (CI) value, median (Human MCL cell line): 0.956; Combination index (CI) value, median [1]: 0.839
Nc1cc(C(F)(F)F)c(-c2cc(N3CCOCC3)nc(N3CCOCC3)n2)cn1 [BKM120] | 0.729 |  | 
C=C(c1ccc(C(=O)O)cc1)c1cc2c(cc1C)C(C)(C)CCC2(C)C [Bexarotene] |  | 0.276 | 
Cc1cc(-c2nc(C(=O)Nc3cc4oc(N5CCOCC5)nc4nc3N3CC[C@@H](O)C3)co2)ccn1 [CA-4948] | 0.905 | 0.846 | 
CO[C@@H](C)c1c(NC(=O)Nc2cnc(-n3nccn3)c(C(F)(F)F)c2)cnc2ccc(Cl)nc12 [Compound A, (S)—N-(6-chloro-4-(1-methoxyethyl)-1,5-naphthyridin-3-yl)-N′-(6-(2H-1,2,3-triazol-2-yl)-5-(trifluoromethyl)pyridin-3-yl)urea] |  |  | T/C (%) [4]: 49.8%
COc1cccc2c1C(=O)c1c(O)c3c(c(O)c1C2=O)C[C@@](O)(C(=O)CO)C[C@@H]3O[C@H]1C[C@H](N)[C@H](O)[C@H](C)O1 [Doxorubicin] | 0.953 | 0.932 | 
Cn1cc(C2=C(c3cn(C4CCN(Cc5ccccn5)CC4)c4ccccc34)C(=O)NC2=O)c2ccccc21 [Enzastaurin] | 0.854 | 0.842 | 
CO[C@H]1C[C@@H]2CC[C@@H](C)[C@@](O)(O2)C(=O)C(=O)N2CCCC[C@H]2C(=O)O[C@H]([C@H](C)C[C@@H]2CC[C@@H](OCCO)[C@H](OC)C2)CC(=O)[C@H](C)/C=C(\C)[C@@H](O)[C@@H](OC)C(=O)[C@H](C)C[C@H](C)/C=C/C=C/C=C/1C [Everolimus] | 0.464 | 0.225 | 
CS(=O)(=O)N1CCN(Cc2cc3nc(-c4cccc5[nH]ncc45)nc(N4CCOCC4)c3s2)CC1 [GDC-0941] | 0.873 | 0.694 | 
C=CC(=O)N1CCC[C@@H](n2nc(-c3ccc(Oc4ccccc4)cc3)c3c(N)ncnc32)C1 [Ibrutinib] |  |  | combination index (CI), median [5]: 0.504; combination index (CI), median ([6]; cell line 1, 6 days of culture): 0.629; median of CI ([6]; in each cell line (cell lines 1 and 2), synergistic effect): less than 1; T/C (%) [4]: 63.1%
CC[C@H](Nc1ncnc2[nH]cnc12)c1nc2cccc(F)c2c(=O)n1-c1ccccc1 [Idelalisib] | 0.528 | 0.457 | 
COc1ccc(F)cc1C(=O)NCc1ccc(-c2nn([C@@H](C)C(F)(F)F)c(N)c2C(N)=O)cc1 [LOXO-305] |  |  | Combination index (CI) value, median (Human MCL cell line): 0.646; Combination index (CI) value, median [1]: 0.764
Nc1cccc2c1CN(C1CCC(=O)NC1=O)C2=O (stereo not drawn) [Lenalidomide] | 0.736 | 0.190 | 
NC1(c2ccc(-c3nc4ccn5c(=O)[nH]nc5c4cc3-c3ccccc3)cc2)CCC1 [MK-2206] | 0.626 | 0.915 | 
NC(=O)c1cnc(N[C@@H]2CCCC[C@@H]2N)nc1Nc1cccc(-n2nccn2)c1 [PRT062607] | 0.630 | 0.820 | 
CC(=O)c1c(C)c2cnc(Nc3ccc(N4CCNCC4)cn3)nc2n(C2CCCC2)c1=O [Palbociclib] | 0.658 | 0.443 | 
C[C@]12C=CC(=O)C=C1CC[C@@H]1[C@@H]2[C@@H](O)C[C@@]2(C)[C@H]1CC[C@]2(O)C(=O)CO [Prednisolone] | 0.168 | 0.854 | 
CN1CCN(c2nc(C3=C(c4c[nH]c5ccccc45)C(=O)NC3=O)c3ccccc3n2)CC1 [Sotrastaurin] | 0.896 | 0.775 | 
CC#CC(=O)N1CC[C@@H](n2c(=O)n(-c3ccc(Oc4ccccc4)cc3)c3c(N)ncnc32)C1 [Tirabrutinib] |  |  | Combination index (CI) value, median (Human MCL cell line): 0.822; Combination index (CI) value, median [1]: 0.761
CC(=O)Nc1cccc(-n2c(=O)n(C3CC3)c(=O)c3c(Nc4ccc(I)cc4F)n(C)c(=O)c(C)c32)c1 [Trametinib] | 0.218 | 0.971 | 
Nc1cc(F)ccc1NC(=O)c1ccc(CNC(=O)/C=C/c2cccnc2)cc1 [Tucidinostat] | 0.756 | 0.668 | 
CC1(C)CCC(CN2CCN(c3ccc(C(=O)NS(=O)(=O)c4ccc(NCC5CCOCC5)c([N+](=O)[O-])c4)c(Oc4cnc5[nH]ccc5c4)c3)CC2)=C(c2ccc(Cl)cc2)C1 [Venetoclax] |  |  | Combination index (CI) value, median (Human MCL cell line): 0.372; Combination index (CI) value, median [1]: 0.5985; Combination index (CI) value, median [7]: 0.5995
O=C(CCCCCCC(=O)Nc1ccccc1)NO [Vorinostat] | 0.930 | 0.866 | 
CN1CCC(c2ccccc2CC(C)(C)Nc2nc(N3CCOCC3)nc(-n3c(C(F)F)nc4ccccc43)n2)CC1 [Zandelisib] | 0.494 | 0.698 | 
C=CC(=O)N1CCC([C@@H]2CCNc3c(C(N)=O)c(-c4ccc(Oc5ccccc5)cc4)nn32)CC1 [Zanubrutinib] |  |  | Combination index (CI) value, median (Human MCL cell line): 0.75; Combination index (CI) value, median [1]: 0.811
Irinotecan (SN-38) | 0.993 | 0.903 | 
